From patent US12516056B2, “Compounds for inhibition of janus kinase 1” (MANKIND PHARMA LTD., priority 2019, dated 2026)
Where a name gives a salt, the structure may show the parent alone.

Assays:
Recombinant JAK3 = biological target: T1, Recombinant JAK3 (Homo sapiens, UniProt P52333); test: JAK biochemical assay (LANCE Ultra TR-FRET), JAK3; settings: recombinant JAK3, TR-FRET; read-out: Biochemical Assay (μM) JAK3
T1 construct: purchased Carna Biosciences
T1 sequence (P52333 1-1124): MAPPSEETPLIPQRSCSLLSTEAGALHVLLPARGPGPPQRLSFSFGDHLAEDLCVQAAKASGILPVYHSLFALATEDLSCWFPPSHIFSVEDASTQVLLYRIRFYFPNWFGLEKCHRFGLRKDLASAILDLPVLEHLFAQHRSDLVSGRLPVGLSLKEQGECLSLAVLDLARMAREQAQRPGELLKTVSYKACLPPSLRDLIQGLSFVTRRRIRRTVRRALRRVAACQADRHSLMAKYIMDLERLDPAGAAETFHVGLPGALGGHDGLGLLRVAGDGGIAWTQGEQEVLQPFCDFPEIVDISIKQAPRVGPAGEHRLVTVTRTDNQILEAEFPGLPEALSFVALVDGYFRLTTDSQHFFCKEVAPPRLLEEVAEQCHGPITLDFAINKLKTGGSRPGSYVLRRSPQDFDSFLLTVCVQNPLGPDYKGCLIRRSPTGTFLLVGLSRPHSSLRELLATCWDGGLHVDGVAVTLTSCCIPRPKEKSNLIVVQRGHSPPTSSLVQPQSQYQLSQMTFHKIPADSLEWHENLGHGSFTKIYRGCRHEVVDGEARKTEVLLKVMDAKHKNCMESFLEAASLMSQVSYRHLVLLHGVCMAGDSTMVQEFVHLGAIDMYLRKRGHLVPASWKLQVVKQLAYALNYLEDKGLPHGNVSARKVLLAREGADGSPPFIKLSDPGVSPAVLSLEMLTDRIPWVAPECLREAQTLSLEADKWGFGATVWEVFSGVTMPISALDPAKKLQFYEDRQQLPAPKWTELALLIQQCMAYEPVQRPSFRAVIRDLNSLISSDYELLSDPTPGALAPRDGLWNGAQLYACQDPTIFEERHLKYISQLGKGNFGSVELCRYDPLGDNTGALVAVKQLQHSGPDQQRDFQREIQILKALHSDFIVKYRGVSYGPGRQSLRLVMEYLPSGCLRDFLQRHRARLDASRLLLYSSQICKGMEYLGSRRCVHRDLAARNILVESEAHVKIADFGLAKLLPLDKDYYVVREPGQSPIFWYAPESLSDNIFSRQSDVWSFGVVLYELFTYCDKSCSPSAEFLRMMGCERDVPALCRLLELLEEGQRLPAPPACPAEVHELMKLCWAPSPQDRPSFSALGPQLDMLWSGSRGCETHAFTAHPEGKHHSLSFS
Procedure: (§1) Recombinant JAK1, JAK2, JAK3 and TYK2 (Carna Biosciences) were used to develop biochemical assays in 50 mM HEPES pH 7.5, 1 mM EGTA, 10 mM MgCl2, 2 mM DTT and 0.01% Tween-20. […] The intensity of the light emission is proportional to the level of ULight substrate phosphorylation. Compounds which interfere with JAK enzyme activity show a lesser substrate phosphorylation and values are projected in terms of % inhibition in comparison to vehicle control.

Recombinant TYK2 = biological target: T2, Recombinant TYK2 (Homo sapiens, UniProt P29597); test: JAK biochemical assay (LANCE Ultra TR-FRET), TYK2; settings: recombinant TYK2, TR-FRET; read-out: Biochemical Assay (μM) TYK2
T2 construct: purchased Carna Biosciences
Procedure: as §1

Recombinant JAK2 = biological target: T3, Recombinant JAK2 (Homo sapiens, UniProt O60674); test: JAK biochemical assay (LANCE Ultra TR-FRET), JAK2; settings: recombinant JAK2, TR-FRET; read-out: Biochemical Assay (μM) JAK2
T3 construct: purchased Carna Biosciences
Procedure: as §1

Recombinant JAK1 = biological target: T4, Recombinant JAK1 (Homo sapiens, UniProt P23458); test: JAK biochemical assay (LANCE Ultra TR-FRET), JAK1; settings: recombinant JAK1, TR-FRET; read-out: Biochemical Assay (μM) JAK1
T4 construct: purchased Carna Biosciences
Procedure: as §1

T4 sequence (P23458 whole entry): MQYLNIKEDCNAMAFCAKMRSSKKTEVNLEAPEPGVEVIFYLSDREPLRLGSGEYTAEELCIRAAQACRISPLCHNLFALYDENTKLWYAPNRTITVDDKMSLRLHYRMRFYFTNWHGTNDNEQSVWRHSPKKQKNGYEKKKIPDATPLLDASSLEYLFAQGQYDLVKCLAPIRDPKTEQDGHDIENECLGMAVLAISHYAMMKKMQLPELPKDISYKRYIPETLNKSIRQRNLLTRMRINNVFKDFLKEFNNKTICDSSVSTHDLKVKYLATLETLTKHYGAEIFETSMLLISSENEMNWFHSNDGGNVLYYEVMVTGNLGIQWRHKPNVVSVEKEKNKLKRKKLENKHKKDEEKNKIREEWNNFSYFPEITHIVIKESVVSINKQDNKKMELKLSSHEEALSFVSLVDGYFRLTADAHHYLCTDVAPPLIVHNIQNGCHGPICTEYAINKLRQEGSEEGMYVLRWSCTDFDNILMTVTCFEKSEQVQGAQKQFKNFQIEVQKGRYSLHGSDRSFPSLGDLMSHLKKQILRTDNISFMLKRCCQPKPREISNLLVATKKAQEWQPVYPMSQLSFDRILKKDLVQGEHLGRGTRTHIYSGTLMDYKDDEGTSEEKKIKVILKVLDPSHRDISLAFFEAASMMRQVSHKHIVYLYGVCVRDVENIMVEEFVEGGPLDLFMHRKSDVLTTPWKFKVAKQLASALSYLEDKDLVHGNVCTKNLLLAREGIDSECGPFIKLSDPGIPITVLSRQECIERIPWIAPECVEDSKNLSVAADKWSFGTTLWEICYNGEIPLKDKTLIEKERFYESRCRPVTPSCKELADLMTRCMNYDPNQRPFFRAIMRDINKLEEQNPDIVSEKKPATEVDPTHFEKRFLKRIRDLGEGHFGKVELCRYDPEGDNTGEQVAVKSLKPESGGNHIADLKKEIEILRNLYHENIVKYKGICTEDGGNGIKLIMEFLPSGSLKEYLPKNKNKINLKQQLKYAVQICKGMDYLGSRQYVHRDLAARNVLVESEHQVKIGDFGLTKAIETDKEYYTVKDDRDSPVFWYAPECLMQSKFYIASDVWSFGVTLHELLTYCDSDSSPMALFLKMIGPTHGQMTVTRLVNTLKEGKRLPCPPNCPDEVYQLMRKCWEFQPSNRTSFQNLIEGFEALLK
T2 sequence (P29597 whole entry): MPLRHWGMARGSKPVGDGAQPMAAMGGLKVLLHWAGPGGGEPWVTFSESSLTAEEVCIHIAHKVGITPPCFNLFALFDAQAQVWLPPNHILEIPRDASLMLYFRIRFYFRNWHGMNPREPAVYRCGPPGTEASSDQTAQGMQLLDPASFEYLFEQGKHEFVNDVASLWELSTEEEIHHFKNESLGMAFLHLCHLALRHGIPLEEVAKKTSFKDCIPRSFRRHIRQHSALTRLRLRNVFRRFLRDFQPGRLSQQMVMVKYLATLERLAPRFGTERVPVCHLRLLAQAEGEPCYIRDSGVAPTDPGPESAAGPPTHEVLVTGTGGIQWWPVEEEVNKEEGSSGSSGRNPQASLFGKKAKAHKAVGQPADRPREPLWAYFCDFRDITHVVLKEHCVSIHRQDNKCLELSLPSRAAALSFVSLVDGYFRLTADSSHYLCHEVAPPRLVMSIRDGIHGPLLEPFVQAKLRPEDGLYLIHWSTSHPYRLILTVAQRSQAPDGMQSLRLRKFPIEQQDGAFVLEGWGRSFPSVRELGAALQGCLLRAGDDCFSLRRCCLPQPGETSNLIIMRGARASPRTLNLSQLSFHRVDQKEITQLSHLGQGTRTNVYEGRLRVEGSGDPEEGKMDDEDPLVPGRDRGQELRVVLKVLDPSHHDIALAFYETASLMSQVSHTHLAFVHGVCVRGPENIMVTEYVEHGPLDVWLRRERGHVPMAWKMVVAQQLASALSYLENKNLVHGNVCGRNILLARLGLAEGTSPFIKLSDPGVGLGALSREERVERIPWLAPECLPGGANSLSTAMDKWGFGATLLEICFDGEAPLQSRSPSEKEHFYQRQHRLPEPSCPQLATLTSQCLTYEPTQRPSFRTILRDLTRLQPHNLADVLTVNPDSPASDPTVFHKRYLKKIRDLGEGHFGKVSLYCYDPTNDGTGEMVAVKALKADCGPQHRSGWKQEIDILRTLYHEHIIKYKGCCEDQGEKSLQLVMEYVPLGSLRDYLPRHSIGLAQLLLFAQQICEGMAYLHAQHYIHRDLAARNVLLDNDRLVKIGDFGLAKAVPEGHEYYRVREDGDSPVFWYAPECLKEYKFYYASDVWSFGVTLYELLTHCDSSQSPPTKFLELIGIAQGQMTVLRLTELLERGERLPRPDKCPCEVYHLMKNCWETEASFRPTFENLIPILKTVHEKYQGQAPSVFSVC
T3 sequence (O60674 whole entry): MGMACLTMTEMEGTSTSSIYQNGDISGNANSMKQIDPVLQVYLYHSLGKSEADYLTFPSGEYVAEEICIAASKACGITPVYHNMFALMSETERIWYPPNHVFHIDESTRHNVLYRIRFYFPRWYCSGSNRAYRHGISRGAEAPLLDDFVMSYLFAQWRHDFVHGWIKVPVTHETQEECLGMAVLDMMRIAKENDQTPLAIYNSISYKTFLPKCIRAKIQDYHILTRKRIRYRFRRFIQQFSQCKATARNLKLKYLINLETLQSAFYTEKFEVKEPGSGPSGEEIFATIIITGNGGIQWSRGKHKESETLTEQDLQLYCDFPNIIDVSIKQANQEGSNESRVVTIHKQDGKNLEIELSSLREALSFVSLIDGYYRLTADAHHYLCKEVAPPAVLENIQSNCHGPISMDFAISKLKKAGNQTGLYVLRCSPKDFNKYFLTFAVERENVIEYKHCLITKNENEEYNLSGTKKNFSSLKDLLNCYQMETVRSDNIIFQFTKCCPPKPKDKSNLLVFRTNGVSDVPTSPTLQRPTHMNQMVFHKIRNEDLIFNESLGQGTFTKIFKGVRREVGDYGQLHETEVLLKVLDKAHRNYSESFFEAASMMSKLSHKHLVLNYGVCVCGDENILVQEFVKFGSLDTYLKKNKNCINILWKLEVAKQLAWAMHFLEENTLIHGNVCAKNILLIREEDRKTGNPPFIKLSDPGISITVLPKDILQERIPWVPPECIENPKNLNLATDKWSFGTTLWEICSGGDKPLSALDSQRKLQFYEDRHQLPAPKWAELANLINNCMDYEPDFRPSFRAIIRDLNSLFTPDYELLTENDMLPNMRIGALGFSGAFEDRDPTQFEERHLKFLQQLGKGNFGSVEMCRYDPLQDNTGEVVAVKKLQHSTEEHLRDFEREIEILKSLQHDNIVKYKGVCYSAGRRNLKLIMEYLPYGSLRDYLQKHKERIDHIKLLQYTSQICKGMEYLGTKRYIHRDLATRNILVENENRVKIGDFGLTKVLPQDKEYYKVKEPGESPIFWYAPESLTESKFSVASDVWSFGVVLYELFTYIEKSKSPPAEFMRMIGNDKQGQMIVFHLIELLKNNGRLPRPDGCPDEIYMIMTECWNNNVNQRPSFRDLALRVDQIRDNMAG

`CS(=O)(=O)COC(c1ccc(-n2cc(-c3ccnc4[nH]cnc34)cn2)nc1)C(F)(F)F` (stereo not drawn) [Example 1140, 7-(1-(5-(1-((methylsulfonyl)methoxy)-2,2,2-trifluoroethyl)pyridin-2-yl)-1H-pyrazol-4-yl)-3H-imidazo[4,5-b]pyridine] was tested, and the IC50 (Recombinant JAK3) was less than 0.1 µM, the IC50 (Recombinant TYK2) was greater than 1 µM and the IC50 (Recombinant JAK2) was less than 0.1 µM. The IC50 (Recombinant JAK1) was less than 0.1 µM.

With `CCOc1nc2c(-c3cnn(C(=O)NCC(F)(F)F)c3)ccnc2[nH]1` [Example 1095, 4-(2-ethoxy-3H-imidazo[4,5-b]pyridin-7-yl)-N-(2,2,2-trifluoroethyl)-1H-pyrazole-1-carboxamide] the IC50 (Recombinant JAK3) was less than 1 µM, the IC50 (Recombinant TYK2) was greater than 10 µM and the IC50 (Recombinant JAK2) was less than 1 µM. It also gave an IC50 (Recombinant JAK1) of less than 1 µM.

`CS(=O)(=O)N1CC(C(C#N)c2ccc(-n3cc(-c4ccnc5[nH]cnc45)cn3)nc2)C1` (stereo not drawn) [Example 1115, 2-(6-(4-(3H-imidazo[4,5-b]pyridin-7-yl)-1H-pyrazol-1-yl)pyridin-3-yl)-2-(1-(methylsulfonyl)azetidin-3-yl)acetonitrile] was tested, and the IC50 (Recombinant JAK3) was greater than 0.5 µM, the IC50 (Recombinant TYK2) was greater than 1 µM and the IC50 (Recombinant JAK2) was greater than 0.5 µM. The IC50 (Recombinant JAK1) was greater than 0.5 µM.

With `OCc1ccc(-n2cc(-c3ccnc4[nH]cnc34)cn2)nc1` [Example 1083, (6-(4-(3H-imidazo[4,5-b]pyridin-7-yl)-1H-pyrazol-1-yl)pyridin-3-yl)methanol] the IC50 (Recombinant JAK3) was less than 0.5 µM, the IC50 (Recombinant TYK2) was greater than 1 µM and the IC50 (Recombinant JAK2) was greater than 0.5 µM. The IC50 (Recombinant JAK1) was greater than 0.5 µM.

`c1cc(-c2cnn(-c3ccc(CN4CCOCC4)cn3)c2)c2nc[nH]c2n1` [Example 1085, 7-(1-(5-(morpholinomethyl)pyridin-2-yl)-1H-pyrazol-4-yl)-3H-imidazo[4,5-b]pyridine] was tested, and the IC50 (Recombinant JAK3) was greater than 1 µM, the IC50 (Recombinant TYK2) was greater than 10 µM and the IC50 (Recombinant JAK2) was greater than 1 µM. The IC50 (Recombinant JAK1) was greater than 1 µM.

`CC1(C)CN(C(=O)N2CCN(c3ccnc4[nH]c(=O)[nH]c34)CC2)C1` [Example 1023, 7-(4-(3,3-dimethylazetidine-1-carbonyl)piperazin-1-yl)-1,3-dihydro-2H-imidazo[4,5-b]pyridin-2-one] showed an IC50 (Recombinant JAK3) greater than 10 µM, an IC50 (Recombinant TYK2) greater than 10 µM and an IC50 (Recombinant JAK2) greater than 10 µM. It also gave an IC50 (Recombinant JAK1) greater than 10 µM.

For `O=C(NCC(F)(F)F)c1ccc(-c2ccnc3[nH]c(=O)[nH]c23)cc1` [Example 1001, N-(2,2,2-trifluoroethyl)-4-(2,3-dihydro-2-oxo-1H-imidazo[4,5-b]pyridin-7-yl)benzamide], the IC50 (Recombinant JAK3) was greater than 10 µM, the IC50 (Recombinant TYK2) was greater than 10 µM and the IC50 (Recombinant JAK2) was greater than 10 µM. The IC50 (Recombinant JAK1) was greater than 10 µM.

`O=C(CN1CCN(c2ccnc3[nH]c(=O)[nH]c23)CC1)NCC(F)(F)F` [Example 1025, N-(2,2,2-trifluoroethyl)-2-(4-(2,3-dihydro-2-oxo-1H-imidazo[4,5-b]pyridin-7-yl)piperazin-1-yl)acetamide] gave an IC50 (Recombinant JAK3) greater than 10 µM, an IC50 (Recombinant TYK2) greater than 10 µM and an IC50 (Recombinant JAK2) greater than 10 µM. It also gave an IC50 (Recombinant JAK1) greater than 10 µM.

With `FC(F)(F)C(CCNC1CCCCC1)c1ccc(-n2cc(-c3ccnc4[nH]cnc34)cn2)nc1` (stereo not drawn) [Example 1199, N-(3-(6-(4-(3H-imidazo[4,5-b]pyridin-7-yl)-1H-pyrazol-1-yl)pyridin-3-yl)-4,4,4-trifluorobutyl)cyclohexanamine] the IC50 (Recombinant JAK3) was less than 0.1 µM, the IC50 (Recombinant TYK2) was greater than 0.5 µM and the IC50 (Recombinant JAK2) was greater than 0.1 µM. It also gave an IC50 (Recombinant JAK1) of less than 0.1 µM.

`O=C(CC(c1ccc(-n2cc(-c3ccnc4[nH]cnc34)cn2)nc1)C(F)(F)F)N1CCOCC1` (stereo not drawn) [Example 1249, 3-(6-(4-(3H-imidazo[4,5-b]pyridin-7-yl)-1H-pyrazol-1-yl)pyridin-3-yl)-4,4,4-trifluoro-1-morpholinobutan-1-one] showed an IC50 (Recombinant JAK3) greater than 0.5 µM, an IC50 (Recombinant TYK2) greater than 1 µM and an IC50 (Recombinant JAK2) greater than 0.5 µM. It also gave an IC50 (Recombinant JAK1) greater than 0.5 µM.

Work on `CS(=O)(=O)N1CCC(NC(=O)N2CCN(c3ccnc4[nH]c(=O)[nH]c34)CC2)CC1` [Example 1016, N-(1-(methylsulfonyl)piperidin-4-yl)-4-(2-oxo-2,3-dihydro-1H-imidazo[4,5-b]pyridin-7-yl)piperazine-1-carboxamide] yielded an IC50 (Recombinant JAK3) greater than 10 µM, an IC50 (Recombinant TYK2) greater than 10 µM and an IC50 (Recombinant JAK2) greater than 10 µM. It also gave an IC50 (Recombinant JAK1) greater than 10 µM.

`O=C(Nc1ccc(-c2ccnc3[nH]c(=O)[nH]c23)cc1)N1CCOCC1` [Example 1008, N-(4-(2,3-dihydro-2-oxo-1H-imidazo[4,5-b]pyridin-7-yl)phenyl)morpholine-4-carboxamide] showed an IC50 (Recombinant JAK3) greater than 1 µM, an IC50 (Recombinant TYK2) greater than 10 µM and an IC50 (Recombinant JAK2) greater than 1 µM. For the same compound, the IC50 (Recombinant JAK1) was greater than 1 µM.

With `O=C(NCC(F)(F)F)n1cc(-c2cccc3[nH]c(=O)[nH]c23)cn1` [Example 1036, N-(2,2,2-trifluoroethyl)-4-(2,3-dihydro-2-oxo-1H-benzo[d]imidazol-4-yl)-1H-pyrazole-1-carboxamide] the IC50 (Recombinant JAK3) was greater than 10 µM, the IC50 (Recombinant TYK2) was greater than 10 µM and the IC50 (Recombinant JAK2) was greater than 10 µM. The IC50 (Recombinant JAK1) was greater than 10 µM.

For `CS(=O)(=O)CCC(c1cccc(-n2cc(-c3ccnc4[nH]cnc34)cn2)n1)C(F)(F)F` (stereo not drawn) [Example 1175, 7-(1-(6-(1,1,1-trifluoro-4-(methylsulfonyl)butan-2-yl)pyridin-2-yl)-1H-pyrazol-4-yl)-3H-imidazo[4,5-b]pyridine], the IC50 (Recombinant JAK3) was greater than 1 µM, the IC50 (Recombinant TYK2) was greater than 1 µM and the IC50 (Recombinant JAK2) was greater than 1 µM. The IC50 (Recombinant JAK1) was greater than 1 µM.

`O=C(NCC(F)(F)F)Nc1ccc(-c2ccnc3[nH]cnc23)cc1` [Example 1010, 1-(4-(3H-imidazo[4,5-b]pyridin-7-yl)phenyl)-3-(2,2,2-trifluoroethyl)urea] showed an IC50 (Recombinant JAK3) greater than 0.5 µM, an IC50 (Recombinant TYK2) greater than 1 µM and an IC50 (Recombinant JAK2) of less than 0.5 µM. For the same compound, the IC50 (Recombinant JAK1) was less than 0.5 µM.

For `O=C(CCC(F)(F)F)n1cc(-c2ccnc3[nH]c(=O)[nH]c23)cn1` [Example 1031, 7-(1-(4,4,4-trifluorobutanoyl)-1H-pyrazol-4-yl)-1H-imidazo[4,5-b]pyridin-2(3H)-one], the IC50 (Recombinant JAK3) was greater than 1 µM, the IC50 (Recombinant TYK2) was greater than 1 µM and the IC50 (Recombinant JAK2) was greater than 1 µM. The IC50 (Recombinant JAK1) was greater than 1 µM.

`O=S(=O)(CCC(c1ccc(-n2cc(-c3ccnc4[nH]cnc34)cn2)nc1)C(F)(F)F)CC1CC1` (stereo not drawn) [Example 1204, 7-(1-(5-(4-(cyclopropylmethylsulfonyl)-1,1,1-trifluorobutan-2-yl)pyridin-2-yl)-1H-pyrazol-4-yl)-3H-imidazo[4,5-b]pyridine] gave an IC50 (Recombinant JAK3) of less than 0.1 µM, an IC50 (Recombinant TYK2) greater than 1 µM and an IC50 (Recombinant JAK2) of less than 0.1 µM. It also gave an IC50 (Recombinant JAK1) of less than 0.1 µM.

In the case of `CS(=O)(=O)CCC(c1ccc(-n2cc(-c3ccnc4[nH]c(=O)[nH]c34)cn2)nc1)C(F)(F)F` (stereo not drawn) [Example 1189, 7-(1-(5-(1,1,1-trifluoro-4-(methylsulfonyl)butan-2-yl)pyridin-2-yl)-1H-pyrazol-4-yl)-1H-imidazo[4,5-b]pyridin-2(3H)-one], the IC50 (Recombinant JAK3) is reported as greater than 1 µM, the IC50 (Recombinant TYK2) is reported as greater than 1 µM and the IC50 (Recombinant JAK2) is reported as greater than 1 µM. The IC50 (Recombinant JAK1) was greater than 0.5 µM.

With `CC(C)N(CCC(c1ccc(-n2cc(-c3ccnc4[nH]cnc34)cn2)nc1)C(F)(F)F)C(C)C` (stereo not drawn) [Example 1211, 3-(6-(4-(3H-imidazo[4,5-b]pyridin-7-yl)-1H-pyrazol-1-yl)pyridin-3-yl)-4,4,4-trifluoro-N,N-diisopropylbutan-1-amine] the IC50 (Recombinant JAK3) was greater than 0.1 µM, the IC50 (Recombinant TYK2) was greater than 1 µM and the IC50 (Recombinant JAK2) was greater than 0.1 µM. For the same compound, the IC50 (Recombinant JAK1) was less than 0.1 µM.

Work on `N#Cc1ccc(-n2cc(-c3ccnc4[nH]cnc34)cn2)nc1` [Example 1079, 6-(4-(3H-imidazo[4,5-b]pyridin-7-yl)-1H-pyrazol-1-yl)pyridine-3-carbonitrile] yielded an IC50 (Recombinant JAK3) greater than 1 µM, an IC50 (Recombinant TYK2) greater than 10 µM and an IC50 (Recombinant JAK2) greater than 1 µM. It also gave an IC50 (Recombinant JAK1) greater than 10 µM.

In the case of `N#CCNC(=O)n1cc(-c2ccnc3[nH]c(=O)[nH]c23)cn1` [Example 1035, N-(cyanomethyl)-4-(2,3-dihydro-2-oxo-1H-imidazo[4,5-b]pyridin-7-yl)-1H-pyrazole-1-carboxamide hydrochloride], the IC50 (Recombinant JAK3) is reported as greater than 10 µM, the IC50 (Recombinant TYK2) is reported as greater than 10 µM and the IC50 (Recombinant JAK2) is reported as greater than 10 µM. The IC50 (Recombinant JAK1) was greater than 10 µM.
